Experimental data published in US8461083B2, “Herbicidal compounds” (Syngenta Limited, priority 2008, dated 2013).

Assays:
Format in all cases: in vivo
[1] = test system: Amaranthus retoflexus (AMARE); assay: Post-emergence herbicidal glasshouse test; conditions: post-emergence (sprayed after 8 days cultivation), evaluated after 13 days, 100=total damage to plant, 0=no damage to plant; for POST Application AMARE, damage to plant: 1000 g/ha; for pest or weed control at 1000 g/ha: Amaranthus retroflexus, 312 h, read-out: POST Application AMARE, damage to plant
How it was run: (§1)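 Rates of 1000 g/ha are applied as an acetone/water (50:50) spray with 0.5% Tween 20 to soil-sown pots, pre-emergence at day 1 or post-emergence at day 8. Percent damage is assessed after 13 days.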

[2] = test system: Alopecurus myosuroides (ALOMY); assay: Post-emergence herbicidal glasshouse test; conditions: post-emergence (sprayed after 8 days cultivation), evaluated after 13 days, 100=total damage to plant, 0=no damage to plant; for POST Application ALOMY, damage to plant: 1000 g/ha; for pest or weed control at 1000 g/ha: Alopecurus myosuroides, 312 h, read-out: POST Application ALOMY, damage to plant
How it was run: as §1

Solanum nigrum (SOLNI) [3] = assay: Post-emergence herbicidal glasshouse test; conditions: post-emergence (sprayed after 8 days cultivation), evaluated after 13 days, 100=total damage to plant, 0=no damage to plant; for POST Application SOLNI, damage to plant: 1000 g/ha; for pest or weed control at 1000 g/ha: Solanum nigrum, 312 h, read-out: POST Application SOLNI, damage to plant
How it was run: as §1

Setaria faberi (SETFA) [4] = assay: Post-emergence herbicidal glasshouse test; conditions: post-emergence (sprayed after 8 days cultivation), evaluated after 13 days, 100=total damage to plant, 0=no damage to plant; for POST Application SETFA, damage to plant: 1000 g/ha; for pest or weed control at 1000 g/ha: Setaria faberi, 312 h, read-out: POST Application SETFA, damage to plant
How it was run: as §1

[5] = test system: Echinochloa crus-galli (ECHCG); assay: Post-emergence herbicidal glasshouse test; conditions: post-emergence (sprayed after 8 days cultivation), evaluated after 13 days, 100=total damage to plant, 0=no damage to plant; for POST Application ECHCG, damage to plant: 1000 g/ha; for pest or weed control at 1000 g/ha: Echinochloa crus-galli, 312 h, read-out: POST Application ECHCG, damage to plant
How it was run: (§2)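 Damage rated 13 days after application on a 0 (none) to 100 (total) scale. Compounds went on at 1000 g/ha in acetone/water 50:50 plus 0.5% Tween 20, one day post-sowing for pre-emergence or eight days for post-emergence. Plants grown at 24/16° C, 14 h light, 65% humidity.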

[6] = test system: Amaranthus retoflexus (AMARE); assay: Pre-emergence herbicidal glasshouse test; conditions: pre-emergence (sprayed after one day cultivation), evaluated after 13 days, 100=total damage to plant, 0=no damage to plant; for PRE Application AMARE, damage to plant: 1000 g/ha; for pest or weed control at 1000 g/ha: Amaranthus retroflexus, 312 h, read-out: PRE Application AMARE, damage to plant
How it was run: as §1

[7] = test system: Alopecurus myosuroides (ALOMY); assay: Pre-emergence herbicidal glasshouse test; conditions: pre-emergence (sprayed after one day cultivation), evaluated after 13 days, 100=total damage to plant, 0=no damage to plant; for PRE Application ALOMY, damage to plant: 1000 g/ha; for pest or weed control at 1000 g/ha: Alopecurus myosuroides, 312 h, read-out: PRE Application ALOMY, damage to plant
How it was run: as §1

Solanum nigrum (SOLNI) [8] = assay: Pre-emergence herbicidal glasshouse test; conditions: pre-emergence (sprayed after one day cultivation), evaluated after 13 days, 100=total damage to plant, 0=no damage to plant; for PRE Application SOLNI, damage to plant: 1000 g/ha; for pest or weed control at 1000 g/ha: Solanum nigrum, 312 h, read-out: PRE Application SOLNI, damage to plant
How it was run: as §1

Setaria faberi (SETFA) [9] = assay: Pre-emergence herbicidal glasshouse test; conditions: pre-emergence (sprayed after one day cultivation), evaluated after 13 days, 100=total damage to plant, 0=no damage to plant; for PRE Application SETFA, damage to plant: 1000 g/ha; for pest or weed control at 1000 g/ha: Setaria faberi, 312 h, read-out: PRE Application SETFA, damage to plant
How it was run: as §1

[10] = test system: Echinochloa crus-galli (ECHCG); assay: Pre-emergence herbicidal glasshouse test; conditions: pre-emergence (sprayed after one day cultivation), evaluated after 13 days, 100=total damage to plant, 0=no damage to plant; for PRE Application ECHCG, damage to plant: 1000 g/ha; for pest or weed control at 1000 g/ha: Echinochloa crus-galli, 312 h, read-out: PRE Application ECHCG, damage to plant
How it was run: as §2

SMILES	POST Application AMARE, damage to plant [1]	POST Application ALOMY, damage to plant [2]	POST Application SOLNI, damage to plant (Solanum nigrum (SOLNI) [3])	POST Application SETFA, damage to plant (Setaria faberi (SETFA) [4])	POST Application ECHCG, damage to plant [5]	PRE Application AMARE, damage to plant [6]	PRE Application ALOMY, damage to plant [7]	PRE Application SOLNI, damage to plant (Solanum nigrum (SOLNI) [8])	PRE Application SETFA, damage to plant (Setaria faberi (SETFA) [9])	PRE Application ECHCG, damage to plant [10]	pest or weed control at 1000 g/ha [1] [%]	pest or weed control at 1000 g/ha [2] [%]	pest or weed control at 1000 g/ha (Solanum nigrum (SOLNI) [3]) [%]	pest or weed control at 1000 g/ha (Setaria faberi (SETFA) [4]) [%]	pest or weed control at 1000 g/ha [5] [%]	pest or weed control at 1000 g/ha [6] [%]	pest or weed control at 1000 g/ha [7] [%]	pest or weed control at 1000 g/ha (Solanum nigrum (SOLNI) [8]) [%]	pest or weed control at 1000 g/ha (Setaria faberi (SETFA) [9]) [%]	pest or weed control at 1000 g/ha [10] [%]
CC#CCn1c(=O)ccc2cc(C(=O)C3C(=O)CCCC3=O)c(C(F)(F)F)nc21 [Compound 2.19, 2-(8-(But-2-ynyl)-7-oxo-7,8-dihydro-2-trifluoromethyl-[1,8]-naphthyridine-3-carbony)-cyclohexane-1,3-dione]	70	100	100	100	90	100	100	100	100	100	–	–	–	–	–	–	–	–	–	–
CCOc1ccc2cc(C(=O)C3=C(OC(=O)C(C)C)CCCC3=O)c(C(F)(F)F)nc2n1 [Compound 4.19, isobutyric acid 2-(7-ethoxy-2-trifluoromethyl-[1,8]-naphthyridine-3-carbonyl)-3-oxo-cyclohex-1-enyl ester]	–	–	–	–	–	–	–	–	–	–	70	80	90	90	80	100	70	100	100	100
O=C1CCCC(=O)C1C(=O)c1cc2ccc(=O)n(Cc3ccccc3)c2nc1C(F)(F)F [Compound 2.20, 2-(8-Benzyl-7-oxo-7,8-dihydro-2-trifluoromethyl-[1,8]-naphthyridine-3-carbony)-cyclohexane-1,3-dione]	80	70	80	70	70	100	100	100	100	100	–	–	–	–	–	–	–	–	–	–
CCCn1c(=O)ccc2cc(C(=O)C3C(=O)CCCC3=O)c(C(F)(F)F)nc21 [Compound 2.13, 2-{8-n.-propyl-7-oxo-7,8-dihydro-2-trifluoromethyl-[1,8]-naphthyridine-3-carbony}-cyclohexane-1,3-dione]	70	80	90	90	90	90	60	100	90	90	–	–	–	–	–	–	–	–	–	–
CS(=O)(=O)c1ccc2cc(C(=O)C3C(=O)CCCC3=O)c(C(F)(F)F)nc2n1 [Compound 1.20]	–	–	–	–	–	–	–	–	–	–	80	20	100	100	90	30	20	100	80	70
Cc1c(F)cnc2nc(C(F)(F)F)c(C(=O)C3C(=O)CCCC3=O)cc12 [Compound 1.62, 2-[6-Fluoro-5-methyl-2-trifluoromethyl-[1,8]-naphthyridine-3-carbony]-cyclohexane-1,3-dione]	–	–	–	–	–	–	–	–	–	–	50	0	80	70	70	20	0	60	30	50
CCCCC(C)Oc1ccc2cc(C(=O)C3C(=O)CCCC3=O)c(C(F)(F)F)nc2n1 (stereo not drawn) [Compound 1.56]	70	30	80	80	70	40	20	100	90	80	–	–	–	–	–	–	–	–	–	–
CCCCCCCC(=O)OC1=C(C(=O)c2cc3cc(F)c(C)nc3nc2C(F)(F)F)C(=O)CCC1 [Compound 4.22, n-Octanoic acid 2-(6-fluoro-7-methyl-2-trifluoromethyl-[1,8]-naphthyridine-3-carbonyl)-3-oxo-cyclohex-1-enyl ester]	–	–	–	–	–	–	–	–	–	–	90	70	90	80	90	100	60	100	100	100
Cc1nc2nc(C(F)(F)F)c(C(=O)C3C(=O)CCCC3=O)cc2cc1F [Compound 1.41, 2-[6-fluoro-7-methyl-2-trifluoromethyl-[1,8]-naphthyridine-3-carbony]-cyclohexane-1,3-dione]	–	–	–	–	–	–	–	–	–	–	100	90	90	100	90	100	90	100	100	100
N#CCn1c(=O)ccc2cc(C(=O)C3C(=O)CCCC3=O)c(C(F)(F)F)nc21 [Compound 2.3]	90	20	90	90	80	90	20	90	60	80	–	–	–	–	–	–	–	–	–	–
CC(C)c1nc2nc(C(F)(F)F)c(C(=O)C3C(=O)CCCC3=O)cc2cc1F [Compound 1.75, 2-[6-fluoro-7-methylethyl-2-trifluoromethyl-[1,8]-naphthyridine-3-carbony]-cyclohexane-1,3-dione]	–	–	–	–	–	–	–	–	–	–	80	80	90	90	90	80	80	90	90	90
CCOC(F)(F)c1nc2nc(C)c(F)cc2cc1C(=O)C1C(=O)CCCC1=O [Compound 1.102, 2-[2-(Ethoxydifluoromethyl)-6-fluoro-7-methyl-[1,8]-naphthyridine-3-carbonyl]-cyclohexane-1,3-dione]	–	–	–	–	–	–	–	–	–	–	90	60	60	80	80	100	30	100	100	90
